Experiments:
[1] = Inhibition 2[3H]mannose incorporation into glycoconjugates in lymphoblasts isolated from congenital disorders of glycosylation-Ia patient at 300 uM; type: functional; settings: Homo sapiens, Lymphoblast
[2] = Cytotoxicity in human lymphoblasts assessed as release of cellular lactate dehydrogenase at 300 uM after 16 hrs relative to methanol; type: cell-based; settings: lymphoblast

Compound | inhibition at 300 µM [1] | Activity [2]
CC(=O)OC[C@H]1O[C@H](OP(=O)(Oc2ccccc2)O[C@H]2O[C@H](COC(C)=O)[C@@H](OC(C)=O)[C@H](OC(C)=O)[C@@H]2OC(C)=O)[C@@H](OC(C)=O)[C@@H](OC(C)=O)[C@@H]1OC(C)=O (single isomer, unassigned) | 26% | –
CC(C)C(=O)OC[C@H]1O[C@H](OP(=O)(Oc2ccccc2)O[C@H]2O[C@H](COC(=O)C(C)C)[C@@H](OC(=O)C(C)C)[C@H](OC(=O)C(C)C)[C@@H]2OC(=O)C(C)C)[C@@H](OC(=O)C(C)C)[C@@H](OC(=O)C(C)C)[C@@H]1OC(=O)C(C)C (single isomer, unassigned) | 78% | –
CC(=O)OC[C@H]1O[C@H](OP(=O)(Oc2cccc3ccccc23)O[C@H]2O[C@H](COC(C)=O)[C@@H](OC(C)=O)[C@H](OC(C)=O)[C@@H]2OC(C)=O)[C@@H](OC(C)=O)[C@@H](OC(C)=O)[C@@H]1OC(C)=O (single isomer, unassigned) | 56% | <= 25%
CCCC(=O)OC[C@H]1O[C@H](OP(=O)(OCc2ccccc2)O[C@H]2O[C@H](COC(=O)CCC)[C@@H](OC(=O)CCC)[C@H](OC(=O)CCC)[C@@H]2OC(=O)CCC)[C@@H](OC(=O)CCC)[C@@H](OC(=O)CCC)[C@@H]1OC(=O)CCC (single isomer, unassigned) | 71% | –
